US20200030415A1 (priority 2018, published 2020)
“And” between values parts separate entries of the source, which are not always exact repeats. Identical values can stand only once. Like-named read-outs stand apart in the source and are kept apart here.

Experiments:
Settings in all cases: human, in vivo
migraine [1] = test system: migraine
migraine [2] = test system: migraine; remark: listed apart in the source
chronic migraine [3] = test system: chronic migraine
chronic migraine [4] = test system: chronic migraine; remark: listed apart in the source
chronic migraine [5] = test system: chronic migraine; remark: listed apart in the source

**Q.** For `CN(C)CCC=C1c2ccccc2CCc2ccccc21` [Amitriptyline, amitriptyline], which “change of headaches with oral medication” value (migraine [1]) is on record?
**A.** minimal change

**Q.** And the “adverse effect of oral preventive medication” value (shortened to “adverse effect”) (migraine [2])?
**A.** weight gain

**Q.** What about the “effect of oral preventive medication on headache frequency” value (“effect … on headache frequency” below) (migraine [2]) of the same molecule?
**A.** none of these reduced their headache frequency

**Q.** Which results are given for OnabotulinumtoxinA?
**A.** headache frequency post treatment (chronic migraine [3]): 14 days/month; headache frequency (migraine [1]): 10/30; headache intensity (migraine [1]): 6-7 out of a scale of 10; headache frequency (chronic migraine [4]): 10 days a month; headache intensity (migraine [2]): 7 out of 10; improvement of headache days from baseline (chronic migraine [5]): about 50%; migraine days per month (chronic migraine [5]): 15 days per month

**Q.** How did the “benefit of added treatment” value (migraine [1]) turn out when `CC12CC3CC(C)(C1)CC(N)(C3)C2` [Namenda, memantine] was run?
**A.** minimal benefit

**Q.** How did the “change of headaches with oral medication” value (migraine [1]) turn out when `CC1(C)O[C@@H]2[C@@H](CO[C@@]3(COS(N)(=O)=O)OC(C)(C)O[C@@H]23)O1` [topiramate] was run?
**A.** minimal change

**Q.** What about the “adverse effect” value (migraine [2]) of the same molecule?
**A.** cognitive slowing

**Q.** What about the “effect … on headache frequency” value (migraine [2]) of the same molecule?
**A.** none of these reduced their headache frequency

**Q.** What about the “headache control with oral preventive medication” value (chronic migraine [5]; po) of the same molecule?
**A.** without headache control

**Q.** `CC(C)NCC(O)COc1cccc2ccccc12` (centres unmarked) [Propranolol] was tested. Which “adverse effect” value (migraine [2]) did it give?
**A.** limited their exercise tolerance

**Q.** And the “effect … on headache frequency” value (migraine [2])?
**A.** none of these reduced their headache frequency

**Q.** Which headache frequency (chronic migraine [4]) does the source give for `C[C@@H]1[C@H](c2c(F)ccc(F)c2F)C[C@H](NC(=O)c2cnc3c(c2)C[C@@]2(C3)C(=O)Nc3ncccc32)C(=O)N1CC(F)(F)F` [atogepant, reference compound] here?
**A.** 9 days a month

B1: erenumab (antibody, chains of the INN, looked up, V domains shown)
VH: QVQLVESGGGVVQPGRSLRLSCAASGFTFSSFGMHWVRQAPGKGLEWVAVISFDGSIKYSVDSVKGRFTISRDNSKNTLFLQMNSLRAEDTAVYYCARDRLNYYDSSGYYHYKYYGMAVWGQGTTVTVSS
VL: QSVLTQPPSVSAAPGQKVTISCSGSSSNIGNNYVSWYQQLPGTAPKLLIYDNNKRPSGIPDRFSGSKSGTSTTLGITGLQTGDEADYYCGTWDSRLSAVVFGGGTKLTVL
**Q.** Which headache frequency (chronic migraine [3]) does the source give for B1 here?
**A.** 10 days/month and 15 days/month

B2: Ajovy (antibody, chains of the INN, looked up, V domains shown)
VH: EVQLVESGGGLVQPGGSLRLSCAASGFTFSNYWISWVRQAPGKGLEWVAEIRSESDASATHYAEAVKGRFTISRDNAKNSLYLQMNSLRAEDTAVYYCLAYFDYGLAIQNYWGQGTLVTVSS
VL: EIVLTQSPATLSLSPGERATLSCKASKRVTTYVSWYQQKPGQAPRLLIYGASNRYLGIPARFSGSGSGTDFTLTISSLEPEDFAVYYCSQSYNYPYTFGQGTKLEIK
**Q.** How did the headache intensity (migraine [2]; sc) turn out when B2 was run?
**A.** lower intensity
